According to ChEMBL document CHEMBL3885861, “Open TG-GATES”:

Species: Rattus norvegicus
Test: Open TG-GATES - Regimen: Single
Assay type: toxicity, organism-based, Sprague-Dawley
Set-up: regimen Single, gender Male, age 6 weeks
Conditions: in vivo, po, 1000 mg/kg, route gavage, dose level High; for APTT / Bas / Eos / Fbg / Hb / Ht / Lym / MCH / MCHC / MCV / Mono / Neu / PT / Plat / RBC / Ret / WBC: tissue Blood; for KIDNEY_L / KIDNEY_R / KIDNEY_TOTAL: tissue Kidney; for LIVER: tissue Liver; for A/G / ALP / ALT / AST / BUN / CRE / Ca / Cl / DBIL / GLC / IP / LDH / Na / PL / RALB / TBIL / TC / TG / TP / gamma-GTP: tissue Plasma

NC(N)=Nc1nc(CSCCC(N)=NS(N)(=O)=O)cs1 [FAMOTIDINE]
TERMINAL_BW (3 h): 216.4 g | APTT (3 h): 18.8 s | Bas (3 h): 0% | Eos (3 h): 1% | Fbg (3 h): 209.8 mg/dL | Hb (3 h): 12.9 g/dL | Ht (3 h): 37.1% | Lym (3 h): 80.8% | MCH (3 h): 20.8 pg | MCHC (3 h): 34.8% | MCV (3 h): 59.8 fL | Mono (3 h): 2.8% | Neu (3 h): 14% | PT (3 h): 12.6 s | Plat (3 h): 124.2 x10_4/uL | RBC (3 h): 620.2 x10_4/ul | Ret (3 h): 7.6% | WBC (3 h): 90.8 x10_2/uL | KIDNEY_L (3 h): 1 g | KIDNEY_R (3 h): 1 g | KIDNEY_TOTAL (3 h): 1.9 g | LIVER (3 h): 10.2 g | A/G (3 h): 1.6 | ALP (3 h): 873.2 IU/L | ALT (3 h): 35.6 IU/L | AST (3 h): 66.6 IU/L | BUN (3 h): 9.4 mg/dL | CRE (3 h): 0.4 mg/dL | Ca (3 h): 10.7 mg/dL | Cl (3 h): 103.4 meq/L | DBIL (3 h): 0.07 mg/dL | GLC (3 h): 194.4 mg/dL | IP (3 h): 9 mg/dL | LDH (3 h): 188.8 IU/L | Na (3 h): 140 meq/L | PL (3 h): 149.4 mg/dL | RALB (3 h): 3.3 g/dL | TBIL (3 h): 0.1 mg/dL | TC (3 h): 81.2 mg/dL | TG (3 h): 51.8 mg/dL | TP (3 h): 5.3 g/dL | gamma-GTP (3 h): 1.2 IU/L | TERMINAL_BW (6 h): 212.4 g | APTT (6 h): 20.5 s | Bas (6 h): 0% | Eos (6 h): 1% | Fbg (6 h): 217.8 mg/dL | Hb (6 h): 13.4 g/dL | Ht (6 h): 37.7% | Lym (6 h): 74% | MCH (6 h): 21.7 pg | MCHC (6 h): 35.4% | MCV (6 h): 61.2 fL | Mono (6 h): 2.8% | Neu (6 h): 20.6% | PT (6 h): 12.5 s | Plat (6 h): 112.6 x10_4/uL | RBC (6 h): 617 x10_4/ul | Ret (6 h): 6.9% | WBC (6 h): 73.8 x10_2/uL | KIDNEY_L (6 h): 1 g | KIDNEY_R (6 h): 1 g | KIDNEY_TOTAL (6 h): 1.9 g | LIVER (6 h): 9 g | A/G (6 h): 1.6 | ALP (6 h): 885.4 IU/L | ALT (6 h): 31.8 IU/L | AST (6 h): 65.8 IU/L | BUN (6 h): 8.6 mg/dL | CRE (6 h): 0.4 mg/dL | Ca (6 h): 10.6 mg/dL | Cl (6 h): 104 meq/L | DBIL (6 h): 0.072 mg/dL | GLC (6 h): 192.4 mg/dL | IP (6 h): 8.9 mg/dL | LDH (6 h): 204.2 IU/L | Na (6 h): 141 meq/L | PL (6 h): 140.4 mg/dL | RALB (6 h): 3.4 g/dL | TBIL (6 h): 0.1 mg/dL | TC (6 h): 73 mg/dL | TG (6 h): 50.8 mg/dL | TP (6 h): 5.5 g/dL | gamma-GTP (6 h): 1.4 IU/L | TERMINAL_BW (9 h): 211.3 g | APTT (9 h): 16.7 s | Bas (9 h): 0% | Eos (9 h): 0.8% | Fbg (9 h): 222.2 mg/dL | Hb (9 h): 13.1 g/dL | Ht (9 h): 36.5% | Lym (9 h): 78% | MCH (9 h): 22 pg | MCHC (9 h): 35.9% | MCV (9 h): 61.4 fL | Mono (9 h): 2.4% | Neu (9 h): 17% | PT (9 h): 12.4 s | Plat (9 h): 112.4 x10_4/uL | RBC (9 h): 594.2 x10_4/ul | Ret (9 h): 7.3% | WBC (9 h): 68.5 x10_2/uL | KIDNEY_L (9 h): 1 g | KIDNEY_R (9 h): 1 g | KIDNEY_TOTAL (9 h): 1.9 g | LIVER (9 h): 8.6 g | A/G (9 h): 1.6 | ALP (9 h): 861.4 IU/L | ALT (9 h): 28 IU/L | AST (9 h): 59.8 IU/L | BUN (9 h): 9.8 mg/dL | CRE (9 h): 0.4 mg/dL | Ca (9 h): 10.3 mg/dL | Cl (9 h): 103.8 meq/L | DBIL (9 h): 0.052 mg/dL | GLC (9 h): 205.6 mg/dL | IP (9 h): 9 mg/dL | LDH (9 h): 150 IU/L | Na (9 h): 140 meq/L | PL (9 h): 151.4 mg/dL | RALB (9 h): 3.3 g/dL | TBIL (9 h): 0.1 mg/dL | TC (9 h): 85.2 mg/dL | TG (9 h): 27.2 mg/dL | TP (9 h): 5.4 g/dL | gamma-GTP (9 h): 0.8 IU/L | TERMINAL_BW (24 h): 223.1 g | APTT (24 h): 22.2 s | Bas (24 h): 0% | Eos (24 h): 1% | Fbg (24 h): 218.4 mg/dL | Hb (24 h): 13.3 g/dL | Ht (24 h): 37.1% | Lym (24 h): 77.2% | MCH (24 h): 21.8 pg | MCHC (24 h): 35.9% | MCV (24 h): 60.7 fL | Mono (24 h): 2.8% | Neu (24 h): 17.2% | PT (24 h): 12.3 s | Plat (24 h): 129.4 x10_4/uL | RBC (24 h): 612.2 x10_4/ul | Ret (24 h): 5.8% | WBC (24 h): 77.3 x10_2/uL | KIDNEY_L (24 h): 1 g | KIDNEY_R (24 h): 1 g | KIDNEY_TOTAL (24 h): 2.1 g | LIVER (24 h): 9.6 g | A/G (24 h): 1.6 | ALP (24 h): 1062.2 IU/L | ALT (24 h): 39 IU/L | AST (24 h): 65.4 IU/L | BUN (24 h): 14.4 mg/dL | CRE (24 h): 0.4 mg/dL | Ca (24 h): 10.5 mg/dL | Cl (24 h): 102.6 meq/L | DBIL (24 h): 0.078 mg/dL | GLC (24 h): 199.6 mg/dL | IP (24 h): 8.2 mg/dL | LDH (24 h): 165 IU/L | Na (24 h): 140.2 meq/L | PL (24 h): 137.6 mg/dL | RALB (24 h): 3.3 g/dL | TBIL (24 h): 0.1 mg/dL | TC (24 h): 76.2 mg/dL | TG (24 h): 67.4 mg/dL | TP (24 h): 5.5 g/dL | gamma-GTP (24 h): 1 IU/L
